The values that follow come from patent publication US5091169A, “Dipyridoxyl phosphate NMRI contrast agent compositions” (priority 1989, dated 1992).

The conditions of data set [1]: cited from earlier work.
The nature of data set [2]: Potentiometric titration of DPDP (ligand proton titration). It is filed as physicochemical. Particulars: pH of 3 and above. The source says: The compound DPDP was studied potentiometrically from pH 11.2 to 2.0. Data sets were collected on a custom-built automatic potentiometric titration apparatus composed of a METROHM 655 DOSIMAT automatic buret, a FISHER ACCUMET pH meter with a CORNING calomel combination electrode, a custom-blown water jacketed titration cell, a BRINKMAN LAUDA K-2/R constant temperature bath and a COMMODORE 64 computer. The BASIC computer program TITRATOR (Harris, W. et al, J.Am.Chem.Soc. 101:6534 (1979)) runs the apparatus. Data analysis was performed on an IBM-AT computer using the least squares program, BETA (Harris, W. et al, supra), and the data analysis program, HANDNBAR (Harris, W. et al, supra). The titrants were standardized by phenophthalein titration as follows: KOH was calibrated against potassium hydrogen phthalate (a primary standard), and HCl solutions were calibrated against the KOH standard. The Mn(II)Cl2 solution was standardized with an EDTA titration using Erichrome Black T as the indicator. All solutions were made from distilled, deionized water that was further purified on a MILLI-Q cartridge system, degassed, and then kept under an atmosphere of argon which had been scrubbed for CO2 and O2. Additions of EDTA and Mn(II) solutions were performed using calibrated GILMOT pipets. […]

Regarding `O=C(O)CN(CCN(CC(=O)O)Cc1ccccc1O)Cc1ccccc1O` [HBED, N,N'-bis(2-hydroxybenzyl)ethylenediamine-N,N'-diacetic acid], in data set [1] (L'Eplathenier et al titrations), the “oxidation of manganese(II) during titration” value is listed as “the manganese(II) ion was oxidized by the phenolic ligand”. Take `Cc1ncc(COP(=O)(O)O)c(CN(CCN(CC(=O)O)Cc2c(COP(=O)(O)O)cnc(C)c2O)CC(=O)O)c1O` [DPDP, N,N'-bis(3-hydroxy-2-methyl-5-phosphonomethyl-4-pyridylmethyl)ethylenediamine-N,N'-diacetic acid]: in data set [2], the “ligand charge / deprotonation state” value was “anionic and possesses deprotonated metal binding sites”. Consider `O=C([O-])C(NCCNC(C(=O)[O-])c1ccccc1O)c1ccccc1O.[Mn+2]` (stereo not shown) [Mn(II) chelates of EHPG], for which the “stability of manganese(II) complex” value in data set [1] (above pH 5, Frost et al) was “irreversibly oxidized”. Take `O=C([O-])CN(CCN(CC(=O)[O-])Cc1ccccc1O)Cc1ccccc1O.[Mn+2]` [manganese chelate of N,N'-bis(2-hydroxybenzyl)ethylenediamine-N,N'-diacetic acid]: the “log Kf (formation constant)” value in data set [1] (manganese chelate, reported by L'Eplathenier et al) is 14.8.
